Experimental data taken from patent publication US20040072753A1, “Peptides for use in the treatment of alzheimer's disease” (priority 2000, published 2004).
Where a SMILES comes first, the peptide text is derived from it.

Key:
[1] = molecular target: biotinylated Aβ 1-42 (Homo sapiens, UniProt P05067); test: Binding of biotinylated Aβ 1-42 to CAβBP or EAβBP coated plates (ELISA, Scatchard); conditions: biotinylated peptide 200 pM
Method: After washing to remove unbound material, an alkaline phosphatase polymer-streptavidin conjugate (Sigma, Dorset, UK) was added and incubated at 37° C. for 2 hours. After washing to remove unbound material, p-nitrophenylphosphate substrate was added and absorbance at 405 nm determined.

[2] = molecular target: biotinylated Aβ 12-28 (Homo sapiens, UniProt P05067); test: Binding of biotinylated Aβ 12-28 to CAβBP or EAβBP coated plates (ELISA); conditions: biotinylated peptide 200 pM
Method: Biotinylated Aβ1-42, Aβ12-28 and Aβ 25-35 (from SEQ ID NO. 2) were prepared using a LinKit-Biolink kit (ISL, Paignton, UK). ELISA plates were coated with CAβBP (catalase residues 400409) or EAβBD (ERAB residues 99-108) (1 μg ml^−1) in carbonate buffer and unoccupied sites blocked with 5% (w/v) dried milk. Biotinylated peptides (200 pM) were incubated alone, with control peptides or with unlabelled Aβ peptides in PBS (containing 0.1% BSA and 0.05% Tween-20) at 37° C. for 4 hours. After washing to remove unbound material, an alkaline phosphatase polymer-streptavidin conjugate (Sigma, Dorset, UK) was added and incubated at 37° C. for 2 hours. After washing to remove unbound material, p-nitrophenylphosphate substrate was added and absorbance at 405 nm determined. Affinity constants were determined by incubating catalase or CAβBP coated plates with biotinylated peptides (200 pM) plus Aβ peptides over a range of concentrations (0-100 nM) and detection of bound peptides was carried out by ELISA.

[3] = molecular target: T1, catalase EC 1.11.1.6 from human erythrocytes (Homo sapiens, UniProt P04040); test: Catalase enzyme activity, inhibition by Aβ peptides; format: biochemical; conditions: test peptides 2 μM
T1 construct: catalase EC 1.11.1.6 from human erythrocytes (Sigma, Dorset, UK) was used; purchased Sigma, Dorset, UK; host or cells: human erythrocytes
T1 sequence (P04040 2-527 limits assumed): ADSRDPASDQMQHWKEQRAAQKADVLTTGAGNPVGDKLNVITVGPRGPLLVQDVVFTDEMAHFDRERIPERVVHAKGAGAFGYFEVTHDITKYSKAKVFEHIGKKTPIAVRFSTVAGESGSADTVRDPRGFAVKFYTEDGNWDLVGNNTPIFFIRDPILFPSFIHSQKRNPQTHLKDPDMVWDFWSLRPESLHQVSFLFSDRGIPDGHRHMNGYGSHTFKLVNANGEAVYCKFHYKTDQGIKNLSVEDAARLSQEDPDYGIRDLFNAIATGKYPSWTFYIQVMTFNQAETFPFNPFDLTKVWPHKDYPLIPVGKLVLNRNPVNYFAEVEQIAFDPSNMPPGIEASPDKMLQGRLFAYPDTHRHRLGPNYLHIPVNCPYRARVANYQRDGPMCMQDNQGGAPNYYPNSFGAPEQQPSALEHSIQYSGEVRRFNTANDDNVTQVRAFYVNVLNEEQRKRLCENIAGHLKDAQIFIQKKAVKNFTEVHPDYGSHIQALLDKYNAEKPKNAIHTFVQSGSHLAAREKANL
Method: For catalase activity catalase EC 1.11.1.6 from human erythrocytes (Sigma, Dorset, UK) was used for all incubation experiments. Activity of Catalase (5kU I^−1) incubated with test peptides (2 μM) was determined after incubation in 60 mM sodium-potassium phosphate buffer at 37° C. in a total volume of 100 μl. After incubation catalase activity was determined by mixing 50 μl sample with 50 μl substrate (6.5 μmol H2O2 in phosphate buffer) for 60 secs, adding 100 μl of 32.4 mM ammonium molybdate and measurement of absorbance change at 405 nm. Catalase activity was calculated from a standard curve (0-10OkU I^−1) using purified human catalase of known activity (Milton, Biochem. J. 344: 293-296 (1999)).

[4] = test system: SP2/0-Ag-14 mouse myeloma cells; test: Cytotoxicity of Aβ peptides, trypan blue dye exclusion; format: cell-based; conditions: test peptides 20 μM, 24 hours
Method: SP2/0-Ag-14 mouse myeloma cells were maintained in RPMI 1640 medium containing 10% fetal calf serum at 37° C. in a 5% CO2 humidified atmosphere. For cytotoxicity experiments 2×1 05 cells were plated in 24 well dishes in 1 ml PBS containing 0.1% BSA and test peptides (20 μM) for 24 hours. Cell viability was determined by trypan blue dye exclusion with at least 100 cells counted per well (Milton, Biochem. J. 344: 293-296 (1999)).

[5] = molecular target: recombinant human cdc2 (Homo sapiens, UniProt P06493); test: Binding of biotinylated Aβ peptides to recombinant human cdc2 coated plates (ELISA); conditions: biotinylated peptide 200 pM, 37° C. 4 hours
Method: (§1) After washing to remove unbound material, an alkaline phosphatase polymer-streptavidin conjugate (Sigma, Dorset, UK) was added and incubated at 37° C. for 2 hours.

[6] = molecular target: T2, recombinant p34-cdc2/cyclin B1 (Homo sapiens, UniProt P06493); test: Phosphorylation of biotinylated Aβ peptides by recombinant p34-cdc2/cyclin B1 (32P incorporation); format: biochemical; conditions: 25 μM biotinylated peptide, 10 min at 30° C.
T2 construct: purchased Promega, UK
Text: (§2) The membrane was washed four times in 2 M NaCl, followed by four times in 2 M NaCl containing 1% (v/v) H3PO4 and finally twice in deionized H2O to remove unbound material.

[7] = molecular target: recombinant human cyclin B1 (Homo sapiens, UniProt P14635); test: Binding of biotinylated Aβ peptides to cyclin B1 coated plates (ELISA); conditions: biotinylated peptide
Method: as §1
Cyclins are co-factors for cdc2 which are required for enzyme activity. These proteins also contain substrate recognition sequences which may play a role in the recruitment of substrate molecules to the active cdc2/cyclin complex. The recombinant cdc2/cyclin enzyme complex used in the above phosphorylation experiments contained cyclin B1. […] Binding assays as described above using cyclin B1 coated plates were carried out.

[8] = molecular target: T3, cdc2/cyclin B1 (Homo sapiens, UniProt P06493+P14635); test: cdc2/cyclin B1 phosphorylation of biotinylated histone H1 substrate peptide; format: biochemical
T3 construct: purchased Promega, UK
Text: as §2
Since Aβ binds to both the cdc2 and cyclin B1 components of the active enzyme it is possible that Aβ modulates the activity of the kinase.

Chain of recombinant human cyclin B1 (P14635 whole entry): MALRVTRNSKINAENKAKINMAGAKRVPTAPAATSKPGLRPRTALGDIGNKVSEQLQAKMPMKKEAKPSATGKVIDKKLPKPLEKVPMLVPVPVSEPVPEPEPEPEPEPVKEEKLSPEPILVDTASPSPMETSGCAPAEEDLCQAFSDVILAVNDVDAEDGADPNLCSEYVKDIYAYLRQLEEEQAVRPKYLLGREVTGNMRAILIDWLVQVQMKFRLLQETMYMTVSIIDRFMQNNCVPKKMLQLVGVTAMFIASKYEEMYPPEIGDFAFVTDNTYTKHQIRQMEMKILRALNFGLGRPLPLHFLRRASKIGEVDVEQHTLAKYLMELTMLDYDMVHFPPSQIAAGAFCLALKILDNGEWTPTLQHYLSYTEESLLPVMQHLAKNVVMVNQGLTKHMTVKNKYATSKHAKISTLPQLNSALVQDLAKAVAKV
T2 sequence (P06493 whole entry): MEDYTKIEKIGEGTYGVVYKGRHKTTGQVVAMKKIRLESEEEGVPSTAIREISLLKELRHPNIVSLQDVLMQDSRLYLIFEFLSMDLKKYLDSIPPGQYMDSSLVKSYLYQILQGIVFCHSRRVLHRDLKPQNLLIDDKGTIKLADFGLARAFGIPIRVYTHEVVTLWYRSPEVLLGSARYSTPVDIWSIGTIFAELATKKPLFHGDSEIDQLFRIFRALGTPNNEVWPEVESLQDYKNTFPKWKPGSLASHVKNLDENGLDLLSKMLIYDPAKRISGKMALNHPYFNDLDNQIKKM
T2 sequence (P14635 whole entry partner): as the sequence (P14635 whole entry) above
Chain of recombinant human cdc2 (P06493 whole entry): as the sequence (P06493 whole entry) above
T3 sequence (P06493 whole entry): as above
T3 sequence (P14635 whole entry): as the sequence (P14635 whole entry) above
Chain of biotinylated Aβ 1-42 (P05067 672-713 limits assumed): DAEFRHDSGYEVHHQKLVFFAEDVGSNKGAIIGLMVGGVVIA

Compound | binding of biotinylated Aβ 1-42 [1] | binding of biotinylated Aβ 12-28 [2] | block of the inhibition of catalase enzyme activity by Aβ 1-42 [3] | block of the cytotoxicity of Aβ 1-42 [4] | block of the cytotoxicity of Aβ fragments containing residues 17-35 [4] | binding to human cdc2 [5] | phosphorylation by cdc2 (incorporation of 32P from γ32P-ATP) [6] | binding to cyclin B1 [7] | effect on phosphorylation of the H1 peptide by cdc2/cyclin B1 [8]
CC(C)C[C@H](NC(=O)[C@H](CC(N)=O)NC(=O)[C@H](Cc1ccc(O)cc1)NC(=O)[C@@H](NC(=O)[C@@H](N)CCCCN)[C@@H](C)O)C(=O)N[C@@H](CCCCN)C(=O)N[C@@H](CCCCN)C(=O)NCC(=O)N[C@@H](CCC(N)=O)C(=O)N[C@H](C(=O)O)[C@@H](C)O [EAβBP] (H-KTYNLKKGQT-OH; N-terminus and C-terminus assumed) | specifically bound | specifically bound | no effect | able to block | able to block |  |  |  | 
Aβ 25-35: functional neurotoxic domain fragment of Aβ (GSNKGAIIGLM) |  |  |  |  |  | bound | incorporated | bound | increased
